Key:
[1] = test system: thromboxane B2 plasma level; assay: in vivo reduction of plasma thromboxane B2 in rats after ionophore A23187; conditions: oral dose as low as 0.20 mg/kg
Experimental: (§1) The inhibition of the synthesis and the reduction of plasma levels of thromboxane is determined in vivo on administration to rats in the following manner (as adapted from the procedures described by Tai et al. in Anal. Biochem. 87:343, 1978 and by Salmon in Prostaglandins 15:383, 1978):
(§2) Rats are dosed with vehicle or test drug and injected intravenously with inophore A23187 (0.5 mg/kg) two hours later. Blood is collected for analysis 2 minutes after the ionophore injection. A single aliquot of each plasma sample is assayed for thromboxane B2 and another aliquot for 6-keto-PGF1 α, the stable metabolites of thromboxane A2 and prostacyclin (PGI2) respectively, by radioimmunoassay.

[2] = molecular target: T1, thromboxane synthetase from lysed human platelets (Homo sapiens, UniProt P24557); assay: in vitro inhibition of thromboxane synthetase (14C-arachidonic acid, TxB2/PGF2 α+β ratio); format: biochemical; conditions: concentration at which ratio TxB2/PGF2 α+β is reduced to 50% of control; 30 minutes incubation
T1 construct: crude microsomal preparation of thromboxane synthetase from lysed human platelets; from tissue; host or cells: human platelets (lysed), crude microsomal preparation
T1 sequence (P24557 1-533): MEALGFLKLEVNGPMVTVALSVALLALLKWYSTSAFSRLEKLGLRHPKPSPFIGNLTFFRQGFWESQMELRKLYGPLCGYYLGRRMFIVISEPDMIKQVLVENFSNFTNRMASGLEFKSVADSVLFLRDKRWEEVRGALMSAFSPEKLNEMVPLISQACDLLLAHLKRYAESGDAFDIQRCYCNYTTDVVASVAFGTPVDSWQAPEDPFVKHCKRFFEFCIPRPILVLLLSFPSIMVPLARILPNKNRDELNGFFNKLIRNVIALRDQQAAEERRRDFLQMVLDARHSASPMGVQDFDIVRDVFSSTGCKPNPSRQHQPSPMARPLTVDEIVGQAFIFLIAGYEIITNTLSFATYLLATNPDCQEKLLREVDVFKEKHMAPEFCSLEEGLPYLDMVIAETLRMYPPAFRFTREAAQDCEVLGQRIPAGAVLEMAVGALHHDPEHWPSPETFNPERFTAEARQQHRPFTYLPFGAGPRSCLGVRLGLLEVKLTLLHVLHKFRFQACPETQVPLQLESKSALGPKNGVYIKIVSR
Experimental: Res. Comm. 74, 1432 (1977); the testing procedure is as follows:
^14 C-Arachidonic acid is incubated with an enzyme mixture preparation consisting of solubilized and partially purified prostaglandin cyclo-oxygenase from sheep seminal vesicles and a crude microsomal preparation of thromboxane synthetase from lysed human platelets. The test compound (dissolved in buffer, or if necessary, in a small amount of ethanol) is added to the incubation medium. At the end of the incubation period (30 minutes), Prostaglandin E2 (PGE2) is reduced to a mixture of Prostaglandin F2 α and F2 β (PGF2 α+β) by addition of sodium borohydride. The radioactive products and excess substrate are extracted into ethyl acetate; the extract is evaporated to dryness; the residue is dissolved in acetone, spotted on thin-layer plates and chromatographed in the solvent system toluene:acetone:glacial acetic acid (100 volumes:100 volumes:3 volumes). The radioactive zones are located; those corresponding to Thromboxane B2 (T×B2) and PGF2 α+β are transferred to liquid scintillation vials and counted. The ratio of counts for T×B2 /PGF2 α+β is calculated for each concentration of test compound and IC50 values are determined graphically as the concentration of test compound at which the ratio of T×B2 /PGF2 α+β is reduced to 50% of the control value.

[3] = test system: prostacyclin (PGI2) plasma level; assay: in vivo plasma prostacyclin (6-keto-PGF1 α) in rats after ionophore A23187; conditions: oral, at 0.20 mg/kg or a higher dose
Experimental: as §1, §2

IC50 [2]: 2.3 nM
SMILES: Cc1c(-n2ccnc2)n(CCCCCC(=O)O)c2ccccc12.Cl [Example 3, 1-(5-carboxypentyl)-2-(1-imidazolyl)-3-methylindole hydrochloride]
decrease of the plasma concentration of thromboxane B2 [1]: over 50%
plasma level of prostacyclin [3]: increase in the plasma level of prostacyclin occurs

Reference: US4539410A, “N-Substituted-2-(1-imidazolyl)indoles” (priority 1983, dated 1985)
